Data as given in PubChem BioAssay AID248 (DTP/NCI, 2004).
Toxic doses and inconclusive results are not listed. Cut-off read from the data, not from the text of the source: active = T/C of 150% or more; inactive = T/C below 125%.

Test system: L1210 leukemia ip in BDF1 mice, survival T/C
Assay: NCI In Vivo Anticancer Drug Screen. Data for tumor model L1210 Leukemia (intraperitoneal) in B6D2F1 (BDF1) mice
Conditions: endpoint: mean survival time, higher = longer survival
How it was run: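 Ratio derived from survival: compound-dosed mice over vehicle-dosed mice, all bearing a transplantable tumor.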

[1] = dose: 25.0 mg/kg/injection, schedule: Q01DX009 (ip), vehicle: saline
[2] = dose: 50.0 mg/kg/injection, schedule: Q01DX009 (ip), vehicle: saline
[3] = dose: 100.0 mg/kg/injection, schedule: Q01DX009 (ip), vehicle: saline
[4] = dose: 100.0 mg/kg/injection, schedule: Q04DX003 (ip), vehicle: saline
[5] = dose: 200.0 mg/kg/injection, schedule: Q01DX009 (ip), vehicle: saline
[6] = dose: 200.0 mg/kg/injection, schedule: Q04DX003 (ip), vehicle: saline
[7] = dose: 100.0 mg/kg/injection, schedule: Q01DX009 (ip), vehicle: saline with Tween-80
[8] = dose: 100.0 mg/kg/injection, schedule: Q04DX003 (ip), vehicle: saline with Tween-80
[9] = dose: 200.0 mg/kg/injection, schedule: Q01DX009 (ip), vehicle: saline with Tween-80
[10] = dose: 200.0 mg/kg/injection, schedule: Q04DX003 (ip), vehicle: saline with Tween-80
[11] = dose: 400.0 mg/kg/injection, schedule: Q04DX003 (ip), vehicle: saline with Tween-80
[12] = dose: 37.5 mg/kg/injection, schedule: Q01DX001 (ip), vehicle: Klucel (hydroxypropylcellulose) (HPC)
[13] = dose: 100.0 mg/kg/injection, schedule: Q01DX001 (ip), vehicle: carboxymethylcellulose (CMC)
[14] = dose: 100.0 mg/kg/injection, schedule: Q04DX002 (ip), vehicle: saline
[15] = dose: 25.0 mg/kg/injection, schedule: Q01DX009 (ip), vehicle: saline with Tween-80
[16] = dose: 50.0 mg/kg/injection, schedule: Q01DX009 (ip), vehicle: saline with Tween-80
[17] = dose: 50.0 mg/kg/injection, schedule: Q04DX003 (ip), vehicle: saline
[18] = dose: 400.0 mg/kg/injection, schedule: Q04DX003 (ip), vehicle: saline
[19] = dose: 100.0 mg/kg/injection, schedule: Q01DX001 (ip), vehicle: saline
[20] = dose: 200.0 mg/kg/injection, schedule: Q01DX001 (ip), vehicle: saline
[21] = dose: 400.0 mg/kg/injection, schedule: Q01DX001 (ip), vehicle: saline

Measured: T/C

CC(=O)NC1CCC(/C=C(\C#N)C2CCC([N+](=O)[O-])CC2)CC1 (stereo not given)
inactive: dose: 25.0 mg/kg/injection, schedule: Q04DX002 (ip), vehicle: saline with Tween-80 97 % of control | dose: 50.0 mg/kg/injection, schedule: Q04DX002 (ip), vehicle: saline with Tween-80 94 % of control | dose: 100.0 mg/kg/injection, schedule: Q04DX002 (ip), vehicle: saline with Tween-80 94 % of control | dose: 200.0 mg/kg/injection, schedule: Q04DX002 (ip), vehicle: saline with Tween-80 86 % of control | dose: 400.0 mg/kg/injection, schedule: Q04DX002 (ip), vehicle: saline with Tween-80 104 % of control

C(CSC1=NCCN1)CSC1=NCCN1
inactive: dose: 6.25 mg/kg/injection, schedule: Q01DX009 (ip), vehicle: saline 105 % of control | dose: 12.5 mg/kg/injection, schedule: Q01DX009 (ip), vehicle: saline 111 % of control | [1] 107 % of control | [2] 117 % of control | [3] 115 % of control | [4] 100 % of control | [5] 115 % of control | [6] 108 % of control

CN(C)c1ccc(C(/C=N\O)(c2ccc(N(C)C)cc2)c2ccc(N(C)C)cc2)cc1
inactive: dose: 100.0 mg/kg/injection, schedule: Q01DX009 (ip), vehicle: Klucel (hydroxypropylcellulose) (HPC) 101 % of control | dose: 100.0 mg/kg/injection, schedule: Q04DX003 (ip), vehicle: Klucel (hydroxypropylcellulose) (HPC) 90 % of control | dose: 200.0 mg/kg/injection, schedule: Q01DX009 (ip), vehicle: Klucel (hydroxypropylcellulose) (HPC) 96 % of control | dose: 200.0 mg/kg/injection, schedule: Q04DX003 (ip), vehicle: Klucel (hydroxypropylcellulose) (HPC) 95 % of control | dose: 400.0 mg/kg/injection, schedule: Q01DX009 (ip), vehicle: Klucel (hydroxypropylcellulose) (HPC) 101 % of control | dose: 400.0 mg/kg/injection, schedule: Q04DX003 (ip), vehicle: Klucel (hydroxypropylcellulose) (HPC) 93 % of control

O=C(O)C(O)C(O)C(O)C(O)C(O)CO.[Cu+2] (stereo not given)
inactive: dose: 30.0 mg/kg/injection, schedule: Q01DX001 (ip), vehicle: saline 91 % of control

O=c1[nH]c(=O)n(CCc2cccs2)cc1F
inactive: [7] 98 % of control | [8] 93 % of control | [9] 96 % of control | [10] 96 % of control | dose: 400.0 mg/kg/injection, schedule: Q01DX009 (ip), vehicle: saline with Tween-80 98 % of control | [11] 95 % of control

Cc1[nH]nc2c(=O)[nH]c3ccccc3c12
inactive: dose: 18.75 mg/kg/injection, schedule: Q01DX001 (ip), vehicle: Klucel (hydroxypropylcellulose) (HPC) 89 % of control | [12] 86 % of control

CC(=O)Oc1c(N)c(C)cc(C)c1F
inactive: dose: 6.0 mg/kg/injection, schedule: Q01DX001 (ip), vehicle: Klucel (hydroxypropylcellulose) (HPC) 92 % of control | dose: 12.0 mg/kg/injection, schedule: Q01DX001 (ip), vehicle: Klucel (hydroxypropylcellulose) (HPC) 92 % of control | dose: 25.0 mg/kg/injection, schedule: Q01DX001 (ip), vehicle: Klucel (hydroxypropylcellulose) (HPC) 110 % of control

CN(CN(C)NC(=O)c1ccccc1)NC(=O)c1ccccc1
inactive: [13] 98 % of control

COP(=O)(OC)OC=C(Cl)Cl
inactive: dose: 25.0 mg/kg/injection, schedule: Q04DX002 (ip), vehicle: saline 94 % of control | dose: 50.0 mg/kg/injection, schedule: Q04DX002 (ip), vehicle: saline 105 % of control | [14] 98 % of control

Cc1ccc(S(=O)(=O)OCC2OC3(COS(=O)(=O)c4ccc(C)cc4)OC(C)(C)OC3C2O)cc1 (stereo not given)
inactive: [15] 92 % of control | [16] 87 % of control | [7] 87 % of control

CCCN(CCC)CCCOC(=O)c1ccc(N)cc1
inactive: [1] 99 % of control | dose: 44.0 mg/kg/injection, schedule: Q04DX003 (ip), vehicle: saline 86 % of control | [2] 106 % of control | [17] 104 % of control | dose: 66.0 mg/kg/injection, schedule: Q04DX003 (ip), vehicle: saline 88 % of control | dose: 67.0 mg/kg/injection, schedule: Q04DX003 (ip), vehicle: saline 93 % of control | [3] 89 % of control

NNc1n[nH]c(=S)n1N
inactive: dose: 25.0 mg/kg/injection, schedule: Q04DX003 (ip), vehicle: saline 90 % of control | [4] 97 % of control

C=CCCCCCCCC[CH2][Sn]([Cl])([Cl])[Cl]
inactive: [17] 93 % of control | [4] 101 % of control

Nc1ccc(S(=O)(=O)O)cc1[N+](=O)[O-]
inactive: [4] 93 % of control | [6] 95 % of control | [18] 96 % of control

Cc1ccc(-n2c(=O)c(N=Nc3ccccc3C)c(O)n(-c3ccccc3C)c2=S)cc1
inactive: [12] 95 % of control | dose: 75.0 mg/kg/injection, schedule: Q01DX001 (ip), vehicle: Klucel (hydroxypropylcellulose) (HPC) 103 % of control | dose: 150.0 mg/kg/injection, schedule: Q01DX001 (ip), vehicle: Klucel (hydroxypropylcellulose) (HPC) 100 % of control

CCOC(=O)CCN1CCOCC1
inactive: [3] 100 % of control | [4] 111 % of control | [5] 101 % of control | [6] 101 % of control | dose: 400.0 mg/kg/injection, schedule: Q01DX009 (ip), vehicle: saline 111 % of control | [18] 101 % of control

O=S(=O)(O)c1ccc(Cl)cc1
inactive: [8] 96 % of control | [10] 104 % of control | [11] 106 % of control

CCOC(=O)CCC(=O)C(=O)OCC
inactive: [19] 92 % of control | [20] 102 % of control | [21] 92 % of control

Cc1ncc(CO)c(COCCC(C)C)c1O
inactive: [14] 95 % of control | dose: 200.0 mg/kg/injection, schedule: Q04DX002 (ip), vehicle: saline 98 % of control

CC1C(=O)C2(C)C3(C)C(=O)C(C)(C(c4ccccc4)=C3c3ccccc3)C2(c2ccccc2)C1c1ccccc1 (stereo not given) (tested in a mixture with another compound)
inactive: [16] 98 % of control | [7] 95 % of control | [9] 95 % of control

O=c1[nH]ncc(Cl)c1Cl
inactive: dose: 12.5 mg/kg/injection, schedule: Q01DX009 (ip), vehicle: saline with Tween-80 92 % of control | [15] 95 % of control | [16] 106 % of control | [7] 87 % of control | [9] 87 % of control

O=S(=O)(O)c1cccnc1
inactive: dose: 19.63 mg/kg/injection, schedule: Q01DX Z (ip), vehicle: carboxymethylcellulose (CMC) 102 % of control | dose: 39.25 mg/kg/injection, schedule: Q01DX Z (ip), vehicle: carboxymethylcellulose (CMC) 93 % of control | dose: 78.5 mg/kg/injection, schedule: Q01DX Z (ip), vehicle: carboxymethylcellulose (CMC) 92 % of control | [19] 102 % of control | dose: 157.0 mg/kg/injection, schedule: Q01DX Z (ip), vehicle: carboxymethylcellulose (CMC) 91 % of control | [20] 98 % of control | [21] 98 % of control

COC(=O)Cc1c(C(=O)OC)c(O)cc(O)c1C(=O)OC
inactive: dose: 50.0 mg/kg/injection, schedule: Q01DX001 (ip), vehicle: carboxymethylcellulose (CMC) 100 % of control | [13] 97 % of control | dose: 200.0 mg/kg/injection, schedule: Q01DX001 (ip), vehicle: carboxymethylcellulose (CMC) 100 % of control | dose: 400.0 mg/kg/injection, schedule: Q01DX001 (ip), vehicle: carboxymethylcellulose (CMC) 100 % of control

CC1CCC(N=S=O)CC1 (stereo not given) (tested in a mixture with another compound)
inactive: dose: 18.75 mg/kg/injection, schedule: Q01DX009 (ip), vehicle: saline with Tween-80 102 % of control | dose: 25.6 mg/kg/injection, schedule: Q04DX002 (ip), vehicle: saline with Tween-80 102 % of control | dose: 37.5 mg/kg/injection, schedule: Q01DX009 (ip), vehicle: saline with Tween-80 102 % of control | dose: 64.0 mg/kg/injection, schedule: Q04DX002 (ip), vehicle: saline with Tween-80 109 % of control | dose: 75.0 mg/kg/injection, schedule: Q01DX009 (ip), vehicle: saline with Tween-80 111 % of control | [8] 101 % of control | dose: 160.0 mg/kg/injection, schedule: Q04DX002 (ip), vehicle: saline with Tween-80 95 % of control
